Test results: US10358435B2, “Triazolyl pyrimidinone compounds as PDE2 inhibitors” (Merck Sharp & Dohme Corp., priority 2015, dated 2019)
pKi: −log10 of the molar value.

Molecular target: human PDE2A1 (Homo sapiens (Human), UniProt O00408)
Assay: IMAP fluorescence polarization assay, human PDE2A1 (PDE selectivity panel)
Assay type: biochemical
Settings: FAM cAMP 50 nM with 1000 nM cGMP
Protocol: The activity of the compounds in accordance with the present invention as PDE2 inhibitors may be readily determined using a fluorescence polarization (FP) methodology (Huang, W., et al., J. Biomol Screen, 2002, 7: 215).
Dose-inhibition profiles for each compound were characterized by fitting the mP data to a four-parameter equation given below.
Selectivity for PDE2, as compared to other PDE families, was assessed using the IMAP® technology. Human PDE10A2 enzyme was prepared from cytosolic fractions of transiently transfected HEK cells. All other PDE's were GST Tag human enzyme expressed in insect cells and were obtained from BPS Bioscience (San Diego, Calif.): PDE1A (Cat#60010), human PDE2A1 (Cat#60020), PDE3A (Cat#60030), PDE4A1A (Cat#60040), PDE5A1 (Cat#60050), PDE6C (Cat#60060), PDE7A (Cat#60070), PDE8A1 (Cat#60080), PDE9A2 (Cat#60090), PDE11A4 (Cat#60110).
Assays for PDE 1 through 11 were performed in parallel at room temperature in 384-well microtiter plates with an incubation volume of 20.2 μL. Solutions of test compounds were prepared in DMSO and serially diluted with DMSO to yield 30 μL of each of ten solutions differing by 3-fold in concentration, at 32 serial dilutions per plate. […] A Labcyte POD 810 (Labcyte, Sunnyvale, Calif.) was used to dispense 200 nL from each well of the titration plate to make eleven copies of the assay plate for each titration, one copy for each PDE enzyme. A solution of each enzyme (dilution from aliquots, sufficient to produce 20% substrate conversion) and a separate solution of FAM-labeled cAMP or FAM-labeled cGMP from Molecular Devices (Sunnyvale, Calif., product # R7506 or cGMP#R7508), at a final concentration of 50 nM were made in the assay buffer (10 mM Tris HCl, pH 7.2, 10 mM MgCl2, 0.05% NaN3 0.01% Tween-20, and 1 mM DTT). Note that the substrate for PDE2 is 50 nM FAM cAMP containing 1000 nM of cGMP. The enzyme and the substrate were then added to the assay plates in two consecutive additions of 10 μL and then shaken to mix. The reaction was allowed to proceed at room temperature for 60 minutes. A binding solution was then made from the kit components, comprised of 80% Solution A, 20% Solution B and binding reagent at a volume of 1/600 the total binding solution. The enzymatic reaction was stopped by addition of 60 μL of the binding solution to each well of the assay plate. The plates were sealed and shaken for 10 seconds. The plates were incubated at room temperature for one hour, then the parallel and perpendicular fluorescence was measured using a Tecan Genios Pro plate reader (Tecan, Switzerland). The apparent inhibition constants for the compounds against all 11 PDE's was determined from the parallel and perpendicular fluorescent readings as described for PDE10 FP assay using the following apparent KM values for each enzyme and substrate combination: PDE1A (FAM cGMP) 70 nM, human PDE2A1 (FAM cAMP) 10,000 nM, PDE3A (FAM cAMP) 50 nM, PDE4A1A (FAM cAMP) 1500 nM, PDE5A1 (FAM cGMP) 400 nM, PDE6C (FAM cGMP) 700 nM, PDE7A (FAM cAMP) 150 nM, PDE8A1 (FAM cAMP) 50 nM, PDE9A2 (FAM cGMP) 60 nM, PDE10A2 (FAM cAMP) 150 nM, PDE11A4 (FAM cAMP) 1000 nM. The intrinsic PDE2 inhibitory activity of a compound which may be used in accordance with the present invention may be determined by these assays.

Sequence of human PDE2A1 (O00408 other isoform, or with tags, fused parts or gaps): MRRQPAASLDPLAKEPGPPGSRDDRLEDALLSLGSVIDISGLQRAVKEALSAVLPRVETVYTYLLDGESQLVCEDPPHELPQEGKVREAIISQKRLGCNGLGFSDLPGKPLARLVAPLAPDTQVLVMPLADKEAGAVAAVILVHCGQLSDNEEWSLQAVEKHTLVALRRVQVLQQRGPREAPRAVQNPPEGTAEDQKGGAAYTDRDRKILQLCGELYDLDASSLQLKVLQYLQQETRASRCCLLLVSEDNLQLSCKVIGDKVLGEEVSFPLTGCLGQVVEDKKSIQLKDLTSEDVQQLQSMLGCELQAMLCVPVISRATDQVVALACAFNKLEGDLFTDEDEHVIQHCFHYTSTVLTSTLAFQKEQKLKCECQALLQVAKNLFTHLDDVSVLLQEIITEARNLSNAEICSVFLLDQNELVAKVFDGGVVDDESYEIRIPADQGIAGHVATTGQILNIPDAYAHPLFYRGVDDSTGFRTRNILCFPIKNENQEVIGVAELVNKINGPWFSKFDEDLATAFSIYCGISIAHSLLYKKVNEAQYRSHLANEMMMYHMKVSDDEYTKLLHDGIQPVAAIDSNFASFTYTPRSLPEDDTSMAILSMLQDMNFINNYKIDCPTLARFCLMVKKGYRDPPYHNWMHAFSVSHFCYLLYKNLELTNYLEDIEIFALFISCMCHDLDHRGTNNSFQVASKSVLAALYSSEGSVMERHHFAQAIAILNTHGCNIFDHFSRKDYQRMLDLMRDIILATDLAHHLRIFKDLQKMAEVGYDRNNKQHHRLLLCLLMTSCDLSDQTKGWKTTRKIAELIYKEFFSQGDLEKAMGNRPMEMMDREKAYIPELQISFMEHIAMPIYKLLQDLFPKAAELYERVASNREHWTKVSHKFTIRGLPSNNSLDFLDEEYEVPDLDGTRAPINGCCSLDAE

Question: With `Cc1nc(-c2nnc3n2CCCC3(C)c2ccc(C(F)(F)F)cc2)cc(=O)[nH]1` (single isomer, unassigned) [Example 72, (S)- or (R)-2-methyl-6-(8-methyl-8-(4-(trifluoromethyl)phenyl)-5,6,7,8-tetrahydro-[1,2,4]triazolo[4,3-a]pyridin-3-yl)pyrimidin-4(3H)-one] as the molecule, how does the pKi read?
Answer: Its pKi is 6.06.

Question: How did the pKi turn out when `Cc1nc(-c2nnc3n2CCCC3(C)c2ccc(C(F)(F)F)cc2)cc(=O)[nH]1` (single isomer, unassigned) [Example 73, (S)- or (R)-2-methyl-6-(8-methyl-8-(4-(trifluoromethyl)phenyl)-5,6,7,8-tetrahydro-[1,2,4]triazolo[4,3-a]pyridin-3-yl)pyrimidin-4(3H)-one] was run?
Answer: The pKi was 7.57.

Question: With `Cc1nc(-n2cc([C@H](C)c3ccc(C(F)(F)F)cc3Cl)nn2)cc(=O)[nH]1` (single isomer, unassigned) [Example 74] as the molecule, how does the pKi read?
Answer: The pKi was 9.38.

Question: With `Cc1nc(-n2cc([C@H](C)c3ccc(C(F)(F)F)cc3Cl)nn2)cc(=O)[nH]1` (single isomer, unassigned) [Example 75] as the molecule, how does the pKi read?
Answer: Its pKi is 8.05.

Question: With `Cc1nc(-c2nnn3c2CCC[C@]3(C)c2ccc(OC(F)(F)F)cc2)cc(=O)[nH]1` (single isomer, unassigned) [Example 76] as the molecule, how does the pKi read?
Answer: The pKi was 6.74.

Question: `Cc1nc(-c2nnn3c2CCC[C@]3(C)c2ccc(OC(F)(F)F)cc2)cc(=O)[nH]1` (single isomer, unassigned) [Example 77] was tested. Which pKi did it give?
Answer: Its pKi is 5.55.

Question: With `Cc1nc(-c2nnn3c2CCC[C@]3(C)c2ccc(C(F)(F)F)cc2C)cc(=O)[nH]1` (single isomer, unassigned) [Example 78] as the molecule, how does the pKi read?
Answer: The pKi was 6.09.

Question: `Cc1nc(-c2nnn3c2CCC[C@]3(C)c2ccc(C(F)(F)F)cc2C)cc(=O)[nH]1` (single isomer, unassigned) [Example 79] was tested. Which pKi did it give?
Answer: Its pKi is 8.08.

Question: How did the pKi turn out when `Cc1nc(-c2nnc3n2CCC[C@]3(C)c2ccc(C(F)(F)F)cc2F)cc(=O)[nH]1` (single isomer, unassigned) [Example 80] was run?
Answer: The pKi was 5.69.

Question: With `Cc1nc(-n2ncc([C@H](C)c3ccc(C(F)(F)F)cc3Cl)n2)cc(=O)[nH]1` (single isomer, unassigned) [Example 82] as the molecule, how does the pKi read?
Answer: The pKi was 6.66.

Question: With `Cc1nc(-n2ncc([C@H](C)c3ccc(C(F)(F)F)cc3Cl)n2)cc(=O)[nH]1` (single isomer, unassigned) [Example 83] as the molecule, how does the pKi read?
Answer: The pKi was 8.38.

Question: How did the pKi turn out when `Cc1nc(-n2cnc([C@H](C)c3ccc(C(F)(F)F)cc3F)n2)cc(=O)[nH]1` (single isomer, unassigned) [Example 84] was run?
Answer: Its pKi is 6.65.

Question: `Cc1nc(-n2cnc([C@H](C)c3ccc(C(F)(F)F)cc3F)n2)cc(=O)[nH]1` (single isomer, unassigned) [Example 85] was tested. Which pKi did it give?
Answer: The pKi was 5.92.

Question: How did the pKi turn out when `Cc1nc(-c2nnn3c2CCC[C@]3(C)c2ccc(C(F)(F)F)cc2Cl)cc(=O)[nH]1` (single isomer, unassigned) [Example 88] was run?
Answer: Its pKi is < 5.53.

Question: How did the pKi turn out when `COc1ccc(Cc2nc(-c3nnn4c3CCC[C@]4(C)c3ccc(C(F)(F)F)cc3F)cc(=O)[nH]2)cc1` (single isomer, unassigned) [Example 90] was run?
Answer: Its pKi is 5.72.

Question: `COc1cccc(Cc2nc(-c3nnn4c3CCCC4(C)c3ccc(C(F)(F)F)cc3F)cc(=O)[nH]2)c1` (single isomer, unassigned) [Example 91, (S)- or (R)-6-(7-(2-Fluoro-4-(trifluoromethyl)phenyl)-7-methyl-4,5,6,7-tetrahydro-[1,2,3]triazolo[1,5-a]pyridin-3-yl)-2-(3-methoxy-benzyl)pyrimidin-4(3H)-one] was tested. Which pKi did it give?
Answer: The pKi was 9.25.

Question: With `COc1cccc(Cc2nc(-c3nnn4c3CCCC4(C)c3ccc(C(F)(F)F)cc3F)cc(=O)[nH]2)c1` (single isomer, unassigned) [Example 92] as the molecule, how does the pKi read?
Answer: The pKi was 6.14.

Question: How did the pKi turn out when `Cc1nc(-c2nnn3c2CCCCC3(C)c2ccc(C(F)(F)F)cc2F)cc(=O)[nH]1` (single isomer, unassigned) [Example 93, (S)- or (R)-6-(8-(2-Fluoro-4-(triflouromethyl)phenyl)-8-methyl-5,6,7,8-tetrahydro-4H-[1,2,3]triazolo[1,5-a]azepin-3-yl)-2-methylpyrimidin-4(3H)-one] was run?
Answer: Its pKi is 7.17.

Question: `Cc1nc(-c2nnn3c2CCCCC3(C)c2ccc(C(F)(F)F)cc2F)cc(=O)[nH]1` (single isomer, unassigned) [Example 94, (S)- or (R)-6-(8-(2-Fluoro-4-(triflouromethyl)phenyl)-8-methyl-5,6,7,8-tetrahydro-4H-[1,2,3]triazolo[1,5-a]azepin-3-yl)-2-methylpyrimidin-4(3H)-one] was tested. Which pKi did it give?
Answer: The pKi was 7.25.

Question: `CCc1ccc([C@]2(C)CCCc3c(-c4cc(=O)[nH]c(C)n4)nnn32)c(F)c1` (single isomer, unassigned) [Example 95] was tested. Which pKi did it give?
Answer: Its pKi is 8.74.

Question: How did the pKi turn out when `CCc1ccc([C@]2(C)CCCc3c(-c4cc(=O)[nH]c(C)n4)nnn32)c(F)c1` (single isomer, unassigned) [Example 96] was run?
Answer: Its pKi is 6.37.

Question: `Cc1nc(-c2nnn3c2CCC3(C)c2ccc(C(F)(F)F)cc2F)cc(=O)[nH]1` (single isomer, unassigned) [Example 98, (S)- or (R)-6-(6-(2-Fluoro-4-(trifluoromethyl)phenyl)-6-methyl-5,6-dihydro-4H-pyrolo[1,2-c][1,2,3]triazol-3-yl)-2-methylpyrimidin-4(3H)-one] was tested. Which pKi did it give?
Answer: Its pKi is 6.66.

Question: `Cc1nc(-c2cn(C(C)(C)c3ccc(C(F)(F)F)cc3Cl)nn2)cc(=O)[nH]1` [Example 30, 6-(1-(2-(2-chloro-4-(trifluoromethyl)phenyl)propan-2-yl)-1H-1,2,3-triazol-4-yl)-2-methylpyrimidin-4(3H)-one] was tested. Which pKi did it give?
Answer: Its pKi is 8.77.

Question: With `Cc1nc(-c2cn(C(C)(C)c3ccc(C(F)(F)F)cc3C)nn2)cc(=O)[nH]1` [Example 31, 2-methyl-6-(1-(2-(2-methyl-4-(trifluoromethyl)phenyl)propan-2-yl)-1H-1,2,3-triazol-4-yl) pyrimidin-4(3H)-one] as the molecule, how does the pKi read?
Answer: Its pKi is 8.27.

Question: How did the pKi turn out when `CCc1ccc(C(C)(C)n2cc(-c3cc(=O)[nH]c(C)n3)nn2)c(C)c1` [Example 33, 6-(1-(2-(4-ethyl-2-methylphenyl)propan-2-yl)-1H-1,2,3-triazol-4-yl)-2-methylpyrimidin-4(3H)-one] was run?
Answer: Its pKi is 7.00.

Question: How did the pKi turn out when `Cc1nc(-c2cn(C(C)(C)c3ccc(C4CC4)cc3Cl)nn2)cc(=O)[nH]1` [Example 34, 6-(1-(2-(2-chloro-4-cyclopropylphenyl)propan-2-yl)-1H-1,2,3-triazol-4-yl)-2-methylpyrimdin-4(3H)-one] was run?
Answer: Its pKi is 8.31.

Question: `Cc1nc(-c2nnn3c2COCC3c2ccc(C(F)(F)F)cc2)cc(=O)[nH]1` (centres unmarked) [Example 53, 2-methyl-6-(7-(4-(trifluoromethyl)phenyl)-6,7-dihydro-4H-[1,2,3]triazolo[5,1-c][1,4]oxazin-3-yl)pyrimidin-4(3H)-one] was tested. Which pKi did it give?
Answer: The pKi was 7.14.

Question: With `Cc1nc(-c2nnc(C(C)(C)c3ccc(C(F)(F)F)cc3F)n2C)cc(=O)[nH]1` [Example 69, 6-(5-(2-(2-Fluoro-4-(trifluoromethyl)phenyl)propan-2-yl)-4-methyl-4H-1,2,4-triazol-3-yl)-2-methylpyrimidin-4(3H)-one] as the molecule, how does the pKi read?
Answer: Its pKi is 5.95.

Question: `Cc1nc(-c2ncn(C(C)c3ccc(C(F)(F)F)cc3F)n2)cc(=O)[nH]1` (centres unmarked) [Example 86, 6-(1-(1-(2-Fluoro-4-(trifluoromethyl)phenyl)ethyl)-1H-1,2,4-triazol-3-yl)-2-methylpyrimidin-4(3H)-one] was tested. Which pKi did it give?
Answer: Its pKi is 6.78.
